Patent US20240041042A1, “1-(PYRIDYL)-5-AZINYLPYRAZOLE DERIVATIVES, AND THEIR USE FOR CONTROL OF UNDESIRED PLANT GROWTH” (Bayer Aktiengesellschaft, priority 2020, published 2024)

How the values were obtained:
Type in all cases: in vivo
[1] = test system: Abutilon theophrasti (ABUTH); assay: Pre-emergence herbicidal action against ABUTH; conditions: Dosage column 320 g/ha (title prints 3200 g/ha); scored visually after about 3 weeks; 100% = plants have died
Procedure, shortened: (§1)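 Seeds sown in pots and covered with soil; WP or EC formulations sprayed onto the soil surface at 600 l/ha water with 0.5% additive, at 320 g/ha or lower. Greenhouse growth for about 3 weeks, then visual scoring as % effect against untreated controls (100% = plants dead).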

[2] = test system: Alopecurus myosuroides (ALOMY); assay: Pre-emergence herbicidal action against ALOMY; conditions: scored visually after about 3 weeks, 100% = plants have died
Procedure, shortened: as §1

[3] = test system: Amaranthus retroflexus (AMARE); assay: Pre-emergence herbicidal action against AMARE; conditions: visual scoring after about 3 weeks vs untreated controls
Procedure, shortened: as §1

[4] = test system: Avena fatua (AVEFA); assay: Pre-emergence herbicidal action against AVEFA; conditions: visual scoring after about 3 weeks vs untreated controls
Procedure, shortened: as §1

[5] = test system: Digitaria sanguinalis (DIGSA); assay: Pre-emergence herbicidal action against DIGSA
Procedure, shortened: as §1

[6] = test system: Echinochloa crus-galli (ECHCG); assay: Pre-emergence herbicidal action against ECHCG
Procedure, shortened: as §1

[7] = test system: Lolium rigidum (LOLRI); assay: Pre-emergence herbicidal action against LOLRI
Procedure, shortened: as §1

[8] = test system: Matricaria inodora (MATIN); assay: Pre-emergence herbicidal action against MATIN
Procedure, shortened: as §1

[9] = test system: Pharbitis purpurea (PHBPU); assay: Pre-emergence herbicidal action against PHBPU
Procedure, shortened: as §1

[10] = test system: Polygonum convolvulus (POLCO); assay: Pre-emergence herbicidal action against POLCO; conditions: dosage 320 g/ha
Procedure, shortened: as §1

[11] = test system: Setaria viridis (SETVI); assay: Pre-emergence herbicidal action against SETVI
Procedure, shortened: as §1

[12] = test system: Verconica persica (VERPE); assay: Pre-emergence herbicidal action against VERPE
Procedure, shortened: as §1

[13] = test system: Viola tricolor (VIOTR); assay: Pre-emergence herbicidal action against VIOTR
Procedure, shortened: as §1

[14] = test system: Avena fatua (AVEFA); assay: Post-emergence herbicidal action against AVEFA; conditions: visual rating about 3 weeks after treatment
Procedure, shortened: (§2)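 Values are percent visual activity (0% like control, 100% plants dead) after about 3 weeks in the greenhouse. Treatment: post-emergence spray at one-leaf stage, 600 l/ha spray volume, 0.5% additive, doses 320 g/ha or lower.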

[15] = test system: Digitaria sanguinalis (DIGSA); assay: Post-emergence herbicidal action against DIGSA; conditions: visual rating about 3 weeks after treatment
Procedure, shortened: as §2

[16] = test system: Echinochloa crus-galli (ECHCG); assay: Post-emergence herbicidal action against ECHCG
Procedure, shortened: as §2

[17] = test system: Lolium rigidum (LOLRI); assay: Post-emergence herbicidal action against LOLRI
Procedure, shortened: as §2

[18] = test system: Matricaria inodora (MATIN); assay: Post-emergence herbicidal action against MATIN; conditions: dosage 320 g/ha
Procedure, shortened: as §2

[19] = test system: Pharbitis purpurea (PHBPU); assay: Post-emergence herbicidal action against PHBPU
Procedure, shortened: as §2

[20] = test system: Polygonum convolvulus (POLCO); assay: Post-emergence herbicidal action against POLCO; conditions: dosage 320 g/ha
Procedure, shortened: as §2

[21] = test system: Setaria viridis (SETVI); assay: Post-emergence herbicidal action against SETVI
Procedure, shortened: as §2

[22] = test system: Viola tricolor (VIOTR); assay: Post-emergence herbicidal action against VIOTR; conditions: 320 g/ha
Procedure, shortened: as §2

[23] = test system: Alopecurus myosuroides (ALOMY); assay: Post-emergence herbicidal action against ALOMY; conditions: visual rating about 3 weeks after treatment vs untreated controls (100% = plants have died, 0% = like control plants)
Procedure, shortened: as §2

[24] = test system: Verconica persica (VERPE); assay: Post-emergence herbicidal action against VERPE
Procedure, shortened: as §2

[25] = 80 g/ha, visual scoring after about 3 weeks vs untreated controls

## COC(=O)[C@@H](C)Oc1nn(-c2nc(F)ccc2F)c(-c2cncc(F)c2)c1Cl [Example I-154]
[1]
  Pre-emergence action against ABUTH: 90%
[2]; 80 g/ha
  Pre-emergence action against ALOMY: 80%
[2]; 320 g/ha
  Pre-emergence action against ALOMY: 90%
[3]; 80 g/ha
  Pre-emergence action against AMARE in %: 90%
[3]; 320 g/ha
  Pre-emergence action against AMARE in %: 100%
[4]; 320 g/ha
  Pre-emergence action against AVEFA in %: 80%
[5]; [25]
  Pre-emergence action against DIGSA in %: 90%
[5]; dosage 320 g/ha
  Pre-emergence action against DIGSA in %: 100%
[6]; dosage 80 g/ha
  Pre-emergence action against ECHCG in %: 90%
[6]; dosage 320 g/ha
  Pre-emergence action against ECHCG in %: 100%
[7]; dosage 80 g/ha
  Pre-emergence action against LOLRI in %: 90%
[7]; dosage 320 g/ha
  Pre-emergence action against LOLRI in %: 100%
[8]; dosage 80 g/ha
  Pre-emergence action against MATIN in %: 90%
[8]; dosage 320 g/ha
  Pre-emergence action against MATIN in %: 100%
[9]; dosage 80 g/ha
  Pre-emergence action against PHBPU in %: 80%
[9]; dosage 320 g/ha
  Pre-emergence action against PHBPU in %: 90%
[10]
  Pre-emergence action against POLCO in %: 90%
[11]; dosage 80 g/ha
  Pre-emergence action against SETVI in %: 90%
[11]; dosage 320 g/ha
  Pre-emergence action against SETVI in %: 100%
[12]; dosage 320 g/ha
  Pre-emergence action against VERPE in %: 100%
[13]; 320 g/ha, Viola tricolor
  Pre-emergence action against VIOTR in %: 100%
[13]; dosage 80 g/ha
  Pre-emergence action against VIOTR in %: 100%
[14]; 320 g/ha
  Post-emergence action against AVEFA in %: 80%
[15]; 80 g/ha
  Post-emergence action against DIGSA in %: 80%
[15]; 320 g/ha
  Post-emergence action against DIGSA in %: 90%
[16]; dosage 80 g/ha
  Post-emergence action against ECHCG in %: 80%
[16]; dosage 320 g/ha
  Post-emergence action against ECHCG in %: 80%
[17]; dosage 80 g/ha
  Post-emergence action against LOLRI in %: 80%
[17]; dosage 320 g/ha
  Post-emergence action against LOLRI in %: 90%
[18]
  Post-emergence action against MATIN in %: 80%
[19]; dosage 80 g/ha
  Post-emergence action against PHBPU in %: 80%
[19]; dosage 320 g/ha
  Post-emergence action against PHBPU in %: 90%
[20]
  Post-emergence action against POLCO in %: 80%
[21]; dosage 320 g/ha
  Post-emergence action against SETVI in %: 80%
[22]
  Post-emergence action against VIOTR in %: 80%

## COC(=O)COc1nn(-c2nc(F)ccc2F)c(-c2cncc(F)c2)c1C1CC1 [Example I-164]
[1]
  Pre-emergence action against ABUTH: 80%
[2]; 80 g/ha
  Pre-emergence action against ALOMY: 100%
[2]; 320 g/ha
  Pre-emergence action against ALOMY: 100%
[3]; 80 g/ha
  Pre-emergence action against AMARE in %: 100%
[3]; 320 g/ha
  Pre-emergence action against AMARE in %: 100%
[4]; 80 g/ha
  Pre-emergence action against AVEFA in %: 90%
[4]; 320 g/ha
  Pre-emergence action against AVEFA in %: 90%
[5]; [25]
  Pre-emergence action against DIGSA in %: 90%
[5]; dosage 320 g/ha
  Pre-emergence action against DIGSA in %: 100%
[6]; dosage 80 g/ha
  Pre-emergence action against ECHCG in %: 90%
[6]; dosage 320 g/ha
  Pre-emergence action against ECHCG in %: 100%
[7]; dosage 80 g/ha
  Pre-emergence action against LOLRI in %: 100%
[7]; dosage 320 g/ha
  Pre-emergence action against LOLRI in %: 100%
[8]; dosage 80 g/ha
  Pre-emergence action against MATIN in %: 90%
[8]; dosage 320 g/ha
  Pre-emergence action against MATIN in %: 100%
[9]; dosage 80 g/ha
  Pre-emergence action against PHBPU in %: 80%
[9]; dosage 320 g/ha
  Pre-emergence action against PHBPU in %: 90%
[10]
  Pre-emergence action against POLCO in %: 100%
[11]; dosage 80 g/ha
  Pre-emergence action against SETVI in %: 100%
[11]; dosage 320 g/ha
  Pre-emergence action against SETVI in %: 100%
[12]; dosage 80 g/ha
  Pre-emergence action against VERPE in %: 90%
[12]; dosage 320 g/ha
  Pre-emergence action against VERPE in %: 100%
[13]; 320 g/ha, Viola tricolor
  Pre-emergence action against VIOTR in %: 100%
[13]; dosage 80 g/ha
  Pre-emergence action against VIOTR in %: 100%
[23]; 80 g/ha
  Post-emergence action against ALOMY in %: 100%
[23]; 320 g/ha
  Post-emergence action against ALOMY in %: 100%
[14]; 80 g/ha
  Post-emergence action against AVEFA in %: 80%
[14]; 320 g/ha
  Post-emergence action against AVEFA in %: 80%
[15]; 80 g/ha
  Post-emergence action against DIGSA in %: 80%
[15]; 320 g/ha
  Post-emergence action against DIGSA in %: 90%
[16]; dosage 80 g/ha
  Post-emergence action against ECHCG in %: 80%
[16]; dosage 320 g/ha
  Post-emergence action against ECHCG in %: 80%
[17]; dosage 80 g/ha
  Post-emergence action against LOLRI in %: 80%
[17]; dosage 320 g/ha
  Post-emergence action against LOLRI in %: 90%
[18]
  Post-emergence action against MATIN in %: 80%
[19]; dosage 80 g/ha
  Post-emergence action against PHBPU in %: 80%
[19]; dosage 320 g/ha
  Post-emergence action against PHBPU in %: 90%
[21]; dosage 80 g/ha
  Post-emergence action against SETVI in %: 80%
[21]; dosage 320 g/ha
  Post-emergence action against SETVI in %: 80%
[24]; 320 g/ha, VERPE
  Post-emergence action against VERPE in %: 80%
[24]; dosage 80 g/ha
  Post-emergence action against VERPE in %: 80%
[22]
  Post-emergence action against VIOTR in %: 80%
